Reference: patent publication US20050032873A1, “3-Amino chroman and 2-amino tetralin derivatives” (Wyeth, priority 2003, published 2005)
Structures can show the parent of a compound that is named as a salt.

| SMILES | melting point |
| --- | --- |
| NC(=O)c1ccc(F)c2c1CC(NCCCc1c[nH]c3ccc(Cl)cc13)CO2 (centres unmarked) (as salt: hydrochloride) [Compound 114, 3-{[3-(5-chloro-1H-indol-3-yl)propyl]amino}-8-fluorochromane-5-carboxamide] | 218 to 221 °C |
| CCN(CCCc1c[nH]c2ccc(Cl)cc12)C1COc2c(F)ccc(C(N)=O)c2C1 (centres unmarked) (as salt: hydrochloride) [Compound 115, 3-[[3-(5-chloro-1H-indol-3-yl)propyl](ethyl)amino]-8-fluorochromane-5-carboxamide] | 149 to 156 °C (dec.) |
| CCCN(CCCc1c[nH]c2ccc(Cl)cc12)C1COc2c(F)ccc(C(N)=O)c2C1 (centres unmarked) (as salt: hydrochloride) [Compound 116, 3-[[3-(5-chloro-1H-indol-3-yl)propyl](propyl)amino]-8-fluorochromane-5-carboxamide] | 148 to 154 °C (dec.) |
| NC(=O)c1ccc(F)c2c1CC(N(CCCc1c[nH]c3ccc(Cl)cc13)C1CCC1)CO2 (centres unmarked) (as salt: hydrochloride) [Compound 117, 3-[[3-(5-chloro-1H-indol-3-yl)propyl](cyclobutyl)amino]-8-fluorochromane-5-carboxamide] | 152 to 160 °C (dec.) |
| NC(=O)c1ccc(F)c2c1CC(N(CCCc1c[nH]c3ccc(Cl)cc13)CC1CC1)CO2 (centres unmarked) (as salt: hydrochloride) [Compound 118, 3-[[3-(5-chloro-1H-indol-3-yl)propyl](cyclopropylmethyl)amino]-8-fluorochromane-5-carboxamide] | 150 to 158 °C (dec.) |
| NC(=O)c1ccc(F)c2c1OCC(NCCCc1c[nH]c3ccc(F)cc13)C2 (centres unmarked) (as salt: hydrochloride) [Compound 119, 5-fluoro-3-{[3-(5-fluoro-1H-indol-3-yl)propyl]amino}chromane-8-carboxamide] | 124 °C (dec.) |
| CCCN(CCCc1c[nH]c2ccc(F)cc12)C1COc2c(C(N)=O)ccc(F)c2C1 (centres unmarked) (as salt: hydrochloride) [Compound 120, 5-fluoro-3-[[3-(5-fluoro-1H-indol-3-yl)propyl](propyl)amino]chromane-8-carboxamide] | 123 °C (dec.) |
| NC(=O)c1ccc(F)c2c1OCC(N(CCCc1c[nH]c3ccc(F)cc13)CC1CC1)C2 (centres unmarked) (as salt: hydrochloride) [Compound 121, 3-{(cyclopropylmethyl)[3-(5-fluoro-1H-indol-3-yl)propyl]amino}-5-fluorochromane-8-carboxamide] | 123 °C (dec.) |
| NC(=O)c1ccc(F)c2c1OCC(N(CCCc1c[nH]c3ccc(F)cc13)C1CCC1)C2 (centres unmarked) (as salt: hydrochloride) [Compound 122, 3-{cyclobutyl[3-(5-fluoro-1H-indol-3-yl)propyl]amino}-5-fluorochromane-8-carboxamide] | 132 °C (dec.) |
| NC(=O)c1ccc(F)c2c1OCC(NCCCCc1c[nH]c3ccc(F)cc13)C2 (centres unmarked) (as salt: hydrochloride) [Compound 123, 5-fluoro-3-{[4-(5-fluoro-1H-indol-3-yl)butyl]amino}chromane-8-carboxamide] | 119 °C (dec.) |
| CCCN(CCCCc1c[nH]c2ccc(F)cc12)C1COc2c(C(N)=O)ccc(F)c2C1 (centres unmarked) (as salt: hydrochloride) [Compound 124, 5-fluoro-3-[[4-(5-fluoro-1H-indol-3-yl)butyl](propyl)amino]chromane-8-carboxamide] | 116 °C (dec.) |
| NC(=O)c1ccc(F)c2c1OCC(N(CCCCc1c[nH]c3ccc(F)cc13)CC1CC1)C2 (centres unmarked) (as salt: hydrochloride) [Compound 125, 3-{(cyclopropylmethyl)[4-(5-fluoro-1H-indol-3-yl)butyl]amino}-5-fluorochromane-8-carboxamide] | 116 °C (dec.) |
| NC(=O)c1ccc(F)c2c1OCC(N(CCCCc1c[nH]c3ccc(F)cc13)C1CCC1)C2 (centres unmarked) (as salt: hydrochloride) [Compound 126, 3-{cyclobutyl[4-(5-fluoro-1H-indol-3-yl)butyl]amino}-5-fluorochromane-8-carboxamide] | 130 °C (dec.) |
| CCN(CCCCc1c[nH]c2ccc(F)cc12)C1COc2c(C(N)=O)ccc(F)c2C1 (centres unmarked) (as salt: hydrochloride) [Compound 127, 3-{ethyl[4-(5-fluoro-1H-indol-3-yl)butyl]amino}-5-fluorochromane-8-carboxamide] | 112 °C (dec.) |
| NC(=O)c1ccc(F)c2c1OCC(NCCCc1c[nH]c3c(F)cc(F)cc13)C2 (centres unmarked) (as salt: hydrochloride) [Compound 128, 3-{[3-(5,7-difluoro-1H-indol-3-yl)propyl]amino}-5-fluorochromane-8-carboxamide] | 149 °C (dec.) |
| CCCN(CCCc1c[nH]c2c(F)cc(F)cc12)C1COc2c(C(N)=O)ccc(F)c2C1 (centres unmarked) (as salt: hydrochloride) [Compound 129, 3-[[3-(5,7-difluoro-1H-indol-3-yl)propyl](propyl)amino]-5-fluorochromane-8-carboxamide] | 130 °C (dec.) |

| SMILES | melting point |
| --- | --- |
| NC(=O)c1ccc(F)c2c1OCC(N(CCCc1c[nH]c3c(F)cc(F)cc13)CC1CC1)C2 (centres unmarked) (as salt: hydrochloride) [Compound 130, 3-{(cyclopropylmethyl)[3-(5,7-difluoro-1H-indol-3-yl)propyl]amino}-5-fluorochromane-8-carboxamide] | 124 °C (dec.) |
| NC(=O)c1ccc(F)c2c1OCC(N(CCCc1c[nH]c3c(F)cc(F)cc13)C1CCC1)C2 (centres unmarked) (as salt: hydrochloride) [Compound 131, 3-{cyclobutyl[3-(5,7-difluoro-1H-indol-3-yl)propyl]amino}-5-fluorochromane-8-carboxamide] | 136 °C (dec.) |
| CCN(CCCc1c[nH]c2c(F)cc(F)cc12)C1COc2c(C(N)=O)ccc(F)c2C1 (centres unmarked) (as salt: hydrochloride) [Compound 132, 3-[[3-(5,7-difluoro-1H-indol-3-yl)propyl](ethyl)amino]-5-fluorochromane-8-carboxamide] | 125 °C (dec.) |
| CNC(=O)c1ccc(F)c2c1C[C@H](N(CCCCc1c[nH]c3ccc(F)cc13)C1CCC1)CO2 (as salt: hydrochloride) [Compound 145a, (3S)-3-{cyclobutyl[4-(5-fluoro-1H-indol-3-yl)butyl]amino}-8-fluoro-N-methylchromane-5-carboxamide] | 125 °C (dec.) |
| CNC(=O)c1ccc(F)c2c1C[C@@H](N(CCCCc1c[nH]c3ccc(F)cc13)C1CCC1)CO2 (as salt: hydrochloride) [Compound 145b, (3R)-3-{cyclobutyl[4-(5-fluoro-1H-indol-3-yl)butyl]amino}-8-fluoro-N-methylchromane-5-carboxamide] | 125 °C (dec.) |
| NC(=O)c1ccc(F)c2c1C[C@@H](N(CCCc1c[nH]c3c(F)cc(F)cc13)CC1CC1)CO2 (as salt: hydrochloride) [Compound 147, (3R)-3-{(cyclopropylmethyl)[3-(5,7-difluoro-1H-indol-3-yl)propyl]amino}-8-fluorochromane-5-carboxamide] | 147 to 151 °C |
| C[C@H](CCN(C1CCC1)[C@H]1COc2c(F)ccc(C(N)=O)c2C1)c1c[nH]c2ccc(F)cc12 (as salt: hydrochloride) [Compound 152a, (3R)-3-{cyclobutyl[(3R)-3-(5-fluoro-1H-indol-3-yl)butyl]amino}-8-fluorochromane-5-carboxamide] | 168 to 174 °C (dec.) |
| C[C@@H](CCN(C1CCC1)[C@H]1COc2c(F)ccc(C(N)=O)c2C1)c1c[nH]c2ccc(F)cc12 (as salt: hydrochloride) [Compound 153a, (3R)-3-{cyclobutyl[(3S)-3-(5-fluoro-1H-indol-3-yl)butyl]amino}-8-fluorochromane-5-carboxamide] | 160 to 168 °C (dec.) |
| C[C@@H](CCN(C1CCC1)[C@@H]1COc2c(F)ccc(C(N)=O)c2C1)c1c[nH]c2ccc(F)cc12 (as salt: hydrochloride) [Compound 153b, (3S)-3-{cyclobutyl[(3S)-3-(5-fluoro-1H-indol-3-yl)butyl]amino}-8-fluorochromane-5-carboxamide] | 162 to 168 °C |
| CCN(CCc1coc2c(OC)cccc12)C1COc2c(F)ccc(C(N)=O)c2C1 (centres unmarked) (as salt: hydrochloride) [Compound 157, 3-{ethyl[2-(7-methoxy-1-benzofuran-3-yl)ethyl]amino}-8-fluorochromane-5-carboxamide] | 124 to 132 °C |
| CCCN(CCc1coc2c(OC)cccc12)C1COc2c(F)ccc(C(N)=O)c2C1 (centres unmarked) (as salt: hydrochloride) [Compound 158, 8-fluoro-3-[[2-(7-methoxy-1-benzofuran-3-yl)ethyl](propyl)amino]chromane-5-carboxamide] | 125 to 132 °C |
| COc1cccc2c(CCN(C3CCC3)C3COc4c(F)ccc(C(N)=O)c4C3)coc12 (centres unmarked) (as salt: hydrochloride) [Compound 159, 3-{cyclobutyl[2-(7-methoxy-1-benzofuran-3-yl)ethyl]amino}-8-fluorochromane-5-carboxamide] | 135 to 145 °C (dec.) |
| COc1cccc2c(CCN(CC3CC3)C3COc4c(F)ccc(C(N)=O)c4C3)coc12 (centres unmarked) (as salt: hydrochloride) [Compound 160, 3-{(cyclopropylmethyl)[2-(7-methoxy-1-benzofuran-3-yl)ethyl]amino}-8-fluorochromane-5-carboxamide] | 130 to 138 °C (dec.) |
| CCN(CCCc1coc2c(OC)cccc12)C1COc2c(F)ccc(C(N)=O)c2C1 (centres unmarked) (as salt: hydrochloride) [Compound 162, 3-{ethyl[3-(7-methoxy-1-benzofuran-3-yl)propyl]amino}-8-fluorochromane-5-carboxamide] | 125 to 128 °C |
| CCCN(CCCc1coc2c(OC)cccc12)C1COc2c(F)ccc(C(N)=O)c2C1 (centres unmarked) (as salt: hydrochloride) [Compound 163, 8-fluoro-3-[[3-(7-methoxy-1-benzofuran-3-yl)propyl](propyl)amino]chromane-5-carboxamide] | 123 to 129 °C |
| COc1cccc2c(CCCN(C3CCC3)C3COc4c(F)ccc(C(N)=O)c4C3)coc12 (centres unmarked) (as salt: hydrochloride) [Compound 164, 3-{cyclobutyl[3-(7-methoxy-1-benzofuran-3-yl)propyl]amino}-8-fluorochromane-5-carboxamide] | 131 to 140 °C (dec.) |
